Measurements published in patent US12655116B2, “Substituted isophthalic acid diamides” (Bayer Aktiengesellschaft, priority 2020, dated 2026).

What was measured:
ABUTH [1] = experiment: Pre-emergence herbicidal action against ABUTH; format: in vivo, Abutilon theophrasti
In short: (§1)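 Herbicidal effect was assessed 3 weeks after treatment by visual comparison with untreated controls, 100% denoting dead plants. Aqueous WP or EC preparations had been applied at 600 to 800 l/ha with 0.2% wetting agent to the soil covering freshly sown seeds.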

AMARE [2] = experiment: Pre-emergence herbicidal action against AMARE; format: in vivo, Amaranthus retroflexus
In short: as §1

ECHCG [3] = experiment: Pre-emergence herbicidal action against ECHCG; format: in vivo, Echinochloa crus-galli; conditions: 80 g/ha
In short: as §1

MATIN [4] = experiment: Pre-emergence herbicidal action against MATIN; format: in vivo, Matricaria inodora
In short: as §1

PHBPU [5] = experiment: Pre-emergence herbicidal action against PHBPU; format: in vivo, Pharbitis purpurea; conditions: dosage 80 g/ha
In short: as §1

POLCO [6] = experiment: Pre-emergence herbicidal action against POLCO; format: in vivo, Polygonum convolvulus; conditions: dosage 80 g/ha
In short: as §1

SETVI [7] = experiment: Pre-emergence herbicidal action against SETVI; format: in vivo, Setaria viridis; conditions: dosage 80 g/ha
In short: as §1

VERPE [8] = experiment: Pre-emergence herbicidal action against VERPE; format: in vivo, Veronica persica; conditions: dosage 80 g/ha
In short: as §1

VIOTR [9] = experiment: Pre-emergence herbicidal action against VIOTR; format: in vivo, Viola tricolor
In short: as §1

DIGSA = experiment: Pre-emergence herbicidal action against DIGSA; format: in vivo, Digitaria sanguinalis
In short: as §1

ABUTH [10] = experiment: Post-emergence herbicidal action against ABUTH; format: in vivo, Abutilon theophrasti; conditions: visual assessment about 3 weeks after treatment vs untreated controls
In short: (§2)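 Herbicidal effect was scored visually in percent after about 3 weeks in the greenhouse. Plants had been raised in sandy loam and treated post-emergence at the one-leaf stage with formulated compound at 600 to 800 l/ha water plus 0.2% wetting agent.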

AMARE [11] = experiment: Post-emergence herbicidal action against AMARE; format: in vivo, Amaranthus retroflexus; conditions: 20 g/ha, visual assessment about 3 weeks after treatment, 100% = plants have died, 0% = like control plants
In short: as §2

ECHCG [12] = experiment: Post-emergence herbicidal action against ECHCG; format: in vivo, Echinochloa crus-galli; conditions: dosage 20 g/ha
In short: as §2

MATIN [13] = experiment: Post-emergence herbicidal action against MATIN; format: in vivo, Matricaria inodora
In short: as §2

PHBPU [14] = experiment: Post-emergence herbicidal action against PHBPU; format: in vivo, Pharbitis purpurea; conditions: dosage 20 g/ha
In short: as §2

POLCO [15] = experiment: Post-emergence herbicidal action against POLCO; format: in vivo, Polygonum convolvulus; conditions: dosage 20 g/ha
Procedure: Seeds of monocotyledonous and dicotyledonous weed and crop plants are laid out in sandy loam soil in wood-fiber pots, covered with soil and cultivated in a greenhouse under good growth conditions. 2 to 3 weeks after sowing, the test plants are treated at the one-leaf stage. The compounds of the invention, formulated in the form of wettable powders (WP) or as emulsion concentrates (EC), are then sprayed onto the green parts of the plants in the form of an aqueous suspension or emulsion at a water application rate equivalent to 600 to 800 l/ha, with addition of 0.2% wetting agent. After the test plants have been left to stand in the greenhouse under optimal growth conditions for about 3 weeks, the action of the preparations is assessed visually in comparison to untreated controls (herbicidal action in percent (%): 100% activity=the plants have died, 0% activity=like control plants). […] The tables below illustrate, in an illustrative manner, the post-emergence herbicidal action of the compounds of the invention, the herbicidal activity being stated in percent.

SETVI [16] = experiment: Post-emergence herbicidal action against SETVI; format: in vivo, Setaria viridis
In short: as §2

VERPE [17] = experiment: Post-emergence herbicidal action against VERPE; format: in vivo, Veronica persica; conditions: 20 g/ha
In short: as §2

VIOTR [18] = experiment: Post-emergence herbicidal action against VIOTR; format: in vivo, Viola tricolor
In short: as §2

[19] = 80 g/ha, scored visually after 3 weeks vs untreated controls (100% = plants have died, 0% = like control plants)

## CCn1nnnc1NC(=O)c1ccc(C(F)F)c(C(=O)NC)c1C1CC1 [Example 2-304]
ABUTH [1]; [19]
  Pre-emergence action against ABUTH (herbicidal activity): 100%
ABUTH [1]; dosage 20 g/ha, scored visually after 3 weeks vs untreated controls, 100% = plants have died, 0% = like control plants
  Pre-emergence action against ABUTH (herbicidal activity in percent): 100%
AMARE [2]; 20 g/ha, scored visually after 3 weeks vs untreated controls, 100% = plants have died, 0% = like control plants
  Pre-emergence action against AMARE in %: 100%
AMARE [2]; [19]
  Pre-emergence action against AMARE in %: 100%
ECHCG [3]
  Pre-emergence action against ECHCG in %: 90%
MATIN [4]; dosage 20 g/ha
  Pre-emergence action against MATIN in %: 90%
MATIN [4]; dosage 80 g/ha
  Pre-emergence action against MATIN in %: 100%
PHBPU [5]
  Pre-emergence action against PHBPU in %: 90%
POLCO [6]
  Pre-emergence action against POLCO in %: 80%
SETVI [7]
  Pre-emergence action against SETVI in %: 90%
VERPE [8]
  Pre-emergence action against VERPE in %: 100%
VIOTR [9]; dosage 20 g/ha
  Pre-emergence action against VIOTR in %: 90%
VIOTR [9]; dosage 80 g/ha
  Pre-emergence action against VIOTR in %: 100%
DIGSA; dosage 20 g/ha
  Pre-emergence action against DIGSA in %: 90%
DIGSA; dosage 80 g/ha
  Pre-emergence action against DIGSA in %: 100%
ABUTH [10]; dosage 5 g/ha
  Post-emergence action against ABUTH in %: 90%
ABUTH [10]; dosage 20 g/ha
  Post-emergence action against ABUTH in %: 90%
AMARE [11]
  Post-emergence action at 20 g/ha against AMARE in %: 100%
ECHCG [12]
  Post-emergence action against ECHCG in %: 80%
MATIN [13]; dosage 5 g/ha
  Post-emergence action against MATIN in %: 90%
MATIN [13]; dosage 20 g/ha
  Post-emergence action against MATIN in %: 90%
PHBPU [14]
  Post-emergence action against PHBPU in %: 90%
POLCO [15]
  Post-emergence action against POLCO in %: 80%
SETVI [16]; dosage 5 g/ha
  Post-emergence action against SETVI in %: 80%
SETVI [16]; dosage 20 g/ha
  Post-emergence action against SETVI in %: 80%
VERPE [17]
  Post-emergence action against VERPE in %: 90%
VIOTR [18]; 5 g/ha
  Post-emergence action against VIOTR in %: 80%
VIOTR [18]; 20 g/ha
  Post-emergence action against VIOTR in %: 90%
